The NIST ThermoML archive (doi:10.1016/j.fluid.2007.10.004)
± gives the expanded uncertainty stated by the source.

Settings: Capillary rise

CCCCn1cc[n+](C)c1.[Cl-] [1-butyl-3-methylimidazolium chloride]
surface tension liquid-gas (298 K): 48.2 ± 1.4 mN/m
surface tension liquid-gas (303 K): 47.8 ± 1.3 mN/m
surface tension liquid-gas (308 K): 47.5 ± 1.3 mN/m
surface tension liquid-gas (313 K): 47.2 ± 1.3 mN/m
surface tension liquid-gas (318 K): 46.9 ± 1.3 mN/m
surface tension liquid-gas (323 K): 46.6 ± 1.3 mN/m
surface tension liquid-gas (328 K): 46.3 ± 1.3 mN/m
surface tension liquid-gas (333 K): 46 ± 1.3 mN/m
surface tension liquid-gas (338 K): 45.6 ± 1.3 mN/m
surface tension liquid-gas (343 K): 45.3 ± 1.3 mN/m
surface tension liquid-gas (348 K): 45 ± 1.3 mN/m
surface tension liquid-gas (353 K): 44.7 ± 1.3 mN/m
surface tension liquid-gas (358 K): 44.4 ± 1.3 mN/m
surface tension liquid-gas (363 K): 43.9 ± 1.3 mN/m
surface tension liquid-gas (368 K): 43.6 ± 1.3 mN/m
surface tension liquid-gas (373 K): 43.2 ± 1.2 mN/m
surface tension liquid-gas (378 K): 42.9 ± 1.2 mN/m
surface tension liquid-gas (383 K): 42.5 ± 1.2 mN/m
surface tension liquid-gas (388 K): 42.2 ± 1.2 mN/m
surface tension liquid-gas (393 K): 41.8 ± 1.2 mN/m

CCCCn1cc[n+](C)c1.F[P-](F)(F)(F)(F)F [1-butyl-3-methylimidazolium hexafluorophosphate]
surface tension liquid-gas (298 K): 47.5 ± 1.3 mN/m
surface tension liquid-gas (303 K): 47.2 ± 1.3 mN/m
surface tension liquid-gas (308 K): 46.9 ± 1.3 mN/m
surface tension liquid-gas (313 K): 46.5 ± 1.3 mN/m
surface tension liquid-gas (318 K): 46 ± 1.3 mN/m
surface tension liquid-gas (323 K): 45.6 ± 1.3 mN/m
surface tension liquid-gas (328 K): 45.3 ± 1.3 mN/m
surface tension liquid-gas (333 K): 44.9 ± 1.3 mN/m
surface tension liquid-gas (338 K): 44.6 ± 1.3 mN/m
surface tension liquid-gas (343 K): 44.3 ± 1.3 mN/m
surface tension liquid-gas (348 K): 43.8 ± 1.3 mN/m
surface tension liquid-gas (353 K): 43.5 ± 1.3 mN/m
surface tension liquid-gas (358 K): 43.1 ± 1.2 mN/m
surface tension liquid-gas (363 K): 42.8 ± 1.2 mN/m
surface tension liquid-gas (368 K): 42.4 ± 1.2 mN/m
surface tension liquid-gas (373 K): 42.1 ± 1.2 mN/m
surface tension liquid-gas (378 K): 41.7 ± 1.2 mN/m
surface tension liquid-gas (383 K): 41.3 ± 1.2 mN/m
surface tension liquid-gas (388 K): 41.1 ± 1.2 mN/m
surface tension liquid-gas (393 K): 40.8 ± 1.2 mN/m

CCCCn1cc[n+](C)c1.[I-] [1-butyl-3-methylimidazolium iodide]
surface tension liquid-gas (298 K): 53.3 ± 1.5 mN/m
surface tension liquid-gas (303 K): 52.9 ± 1.5 mN/m
surface tension liquid-gas (308 K): 52.5 ± 1.5 mN/m
surface tension liquid-gas (313 K): 52.1 ± 1.5 mN/m
surface tension liquid-gas (318 K): 51.5 ± 1.4 mN/m
surface tension liquid-gas (323 K): 51.1 ± 1.4 mN/m
surface tension liquid-gas (328 K): 50.7 ± 1.4 mN/m
surface tension liquid-gas (333 K): 50.3 ± 1.4 mN/m
surface tension liquid-gas (338 K): 49.9 ± 1.4 mN/m
surface tension liquid-gas (343 K): 49.4 ± 1.4 mN/m
surface tension liquid-gas (348 K): 49 ± 1.4 mN/m
surface tension liquid-gas (353 K): 48.6 ± 1.4 mN/m
surface tension liquid-gas (358 K): 48.2 ± 1.4 mN/m
surface tension liquid-gas (363 K): 47.8 ± 1.4 mN/m
surface tension liquid-gas (368 K): 47.4 ± 1.3 mN/m
surface tension liquid-gas (373 K): 47.1 ± 1.3 mN/m
surface tension liquid-gas (378 K): 46.7 ± 1.3 mN/m
surface tension liquid-gas (383 K): 46.3 ± 1.3 mN/m
surface tension liquid-gas (388 K): 46 ± 1.3 mN/m
surface tension liquid-gas (393 K): 45.6 ± 1.3 mN/m

CCCCn1cc[n+](C)c1.F[B-](F)(F)F [1-butyl-3-methylimidazolium tetrafluoroborate]
surface tension liquid-gas (298 K): 43.6 ± 1.3 mN/m
surface tension liquid-gas (303 K): 43.3 ± 1.2 mN/m
surface tension liquid-gas (308 K): 43 ± 1.2 mN/m
surface tension liquid-gas (313 K): 42.7 ± 1.2 mN/m
surface tension liquid-gas (318 K): 42.3 ± 1.2 mN/m
surface tension liquid-gas (323 K): 42 ± 1.2 mN/m
surface tension liquid-gas (328 K): 41.8 ± 1.2 mN/m
surface tension liquid-gas (333 K): 41.5 ± 1.2 mN/m
surface tension liquid-gas (338 K): 41.2 ± 1.2 mN/m
surface tension liquid-gas (343 K): 40.9 ± 1.2 mN/m
surface tension liquid-gas (348 K): 40.7 ± 1.2 mN/m
surface tension liquid-gas (353 K): 40.4 ± 1.2 mN/m
surface tension liquid-gas (358 K): 40.2 ± 1.2 mN/m
surface tension liquid-gas (363 K): 39.8 ± 1.2 mN/m
surface tension liquid-gas (368 K): 39.5 ± 1.2 mN/m
surface tension liquid-gas (373 K): 39.2 ± 1.2 mN/m
surface tension liquid-gas (378 K): 39 ± 1.2 mN/m
surface tension liquid-gas (383 K): 38.8 ± 1.1 mN/m
surface tension liquid-gas (388 K): 38.5 ± 1.1 mN/m
surface tension liquid-gas (393 K): 38.2 ± 1.1 mN/m

CCCCCCn1cc[n+](C)c1.[Cl-] [1-hexyl-3-methylimidazolium chloride]
surface tension liquid-gas (298 K): 41.8 ± 1.2 mN/m
surface tension liquid-gas (303 K): 41.5 ± 1.2 mN/m
surface tension liquid-gas (308 K): 41.2 ± 1.2 mN/m
surface tension liquid-gas (313 K): 40.8 ± 1.2 mN/m
surface tension liquid-gas (318 K): 40.5 ± 1.2 mN/m
surface tension liquid-gas (323 K): 40.2 ± 1.2 mN/m
surface tension liquid-gas (328 K): 40 ± 1.2 mN/m
surface tension liquid-gas (333 K): 39.8 ± 1.2 mN/m
surface tension liquid-gas (338 K): 39.4 ± 1.2 mN/m
surface tension liquid-gas (343 K): 39.1 ± 1.2 mN/m
surface tension liquid-gas (348 K): 38.8 ± 1.2 mN/m
surface tension liquid-gas (353 K): 38.5 ± 1.1 mN/m
surface tension liquid-gas (358 K): 38.3 ± 1.1 mN/m
surface tension liquid-gas (363 K): 37.9 ± 1.1 mN/m
surface tension liquid-gas (368 K): 37.7 ± 1.1 mN/m
surface tension liquid-gas (373 K): 37.4 ± 1.1 mN/m
surface tension liquid-gas (378 K): 37.1 ± 1.1 mN/m
surface tension liquid-gas (383 K): 36.8 ± 1.1 mN/m
surface tension liquid-gas (388 K): 36.5 ± 1.1 mN/m
surface tension liquid-gas (393 K): 36.2 ± 1.1 mN/m

CCCCCCn1cc[n+](C)c1.F[P-](F)(F)(F)(F)F [1-hexyl-3-methylimidazolium hexafluorophosphate]
surface tension liquid-gas (298 K): 43.4 ± 1.3 mN/m
surface tension liquid-gas (303 K): 43 ± 1.2 mN/m
surface tension liquid-gas (308 K): 42.6 ± 1.2 mN/m
surface tension liquid-gas (313 K): 42.3 ± 1.2 mN/m
surface tension liquid-gas (318 K): 41.9 ± 1.2 mN/m
surface tension liquid-gas (323 K): 41.5 ± 1.2 mN/m
surface tension liquid-gas (328 K): 41.1 ± 1.2 mN/m
surface tension liquid-gas (333 K): 40.8 ± 1.2 mN/m
surface tension liquid-gas (338 K): 40.5 ± 1.2 mN/m
surface tension liquid-gas (343 K): 40.2 ± 1.2 mN/m
surface tension liquid-gas (348 K): 39.8 ± 1.2 mN/m
surface tension liquid-gas (353 K): 39.5 ± 1.2 mN/m
surface tension liquid-gas (358 K): 39.1 ± 1.2 mN/m
surface tension liquid-gas (363 K): 38.8 ± 1.2 mN/m

CCCCCCn1cc[n+](C)c1.[I-] [1-hexyl-3-methylimidazolium iodide]
surface tension liquid-gas (298 K): 43.5 ± 1.3 mN/m
surface tension liquid-gas (303 K): 43.1 ± 1.2 mN/m
surface tension liquid-gas (308 K): 42.7 ± 1.2 mN/m
surface tension liquid-gas (313 K): 42.3 ± 1.2 mN/m
surface tension liquid-gas (318 K): 41.9 ± 1.2 mN/m
surface tension liquid-gas (323 K): 41.5 ± 1.2 mN/m
surface tension liquid-gas (328 K): 41.1 ± 1.2 mN/m
surface tension liquid-gas (333 K): 40.8 ± 1.2 mN/m
surface tension liquid-gas (338 K): 40.4 ± 1.2 mN/m
surface tension liquid-gas (343 K): 40.1 ± 1.2 mN/m
surface tension liquid-gas (348 K): 39.7 ± 1.2 mN/m
surface tension liquid-gas (353 K): 39.4 ± 1.2 mN/m
surface tension liquid-gas (358 K): 39 ± 1.2 mN/m
surface tension liquid-gas (363 K): 38.6 ± 1.1 mN/m
surface tension liquid-gas (368 K): 38.3 ± 1.1 mN/m
surface tension liquid-gas (373 K): 37.9 ± 1.1 mN/m
surface tension liquid-gas (378 K): 37.6 ± 1.1 mN/m
surface tension liquid-gas (383 K): 37.2 ± 1.1 mN/m
surface tension liquid-gas (388 K): 36.8 ± 1.1 mN/m
surface tension liquid-gas (393 K): 36.5 ± 1.1 mN/m

CCCCCCn1cc[n+](C)c1.F[B-](F)(F)F [1-hexyl-3-methylimidazolium tetrafluoroborate]
surface tension liquid-gas (298 K): 39.2 ± 1.2 mN/m
surface tension liquid-gas (303 K): 38.9 ± 1.2 mN/m
surface tension liquid-gas (308 K): 38.7 ± 1.1 mN/m
surface tension liquid-gas (313 K): 38.4 ± 1.1 mN/m
surface tension liquid-gas (318 K): 38.1 ± 1.1 mN/m
surface tension liquid-gas (323 K): 37.9 ± 1.1 mN/m
surface tension liquid-gas (328 K): 37.7 ± 1.1 mN/m
surface tension liquid-gas (333 K): 37.5 ± 1.1 mN/m
surface tension liquid-gas (338 K): 37.2 ± 1.1 mN/m
surface tension liquid-gas (343 K): 36.9 ± 1.1 mN/m
surface tension liquid-gas (348 K): 36.6 ± 1.1 mN/m
surface tension liquid-gas (353 K): 36.4 ± 1.1 mN/m
surface tension liquid-gas (358 K): 36.2 ± 1.1 mN/m
surface tension liquid-gas (363 K): 35.8 ± 1.1 mN/m
surface tension liquid-gas (368 K): 35.6 ± 1.1 mN/m
surface tension liquid-gas (373 K): 35.4 ± 1.1 mN/m
surface tension liquid-gas (378 K): 35.1 ± 1.1 mN/m
surface tension liquid-gas (383 K): 34.9 ± 1.1 mN/m
surface tension liquid-gas (388 K): 34.6 ± 1.1 mN/m
surface tension liquid-gas (393 K): 34.3 ± 1.1 mN/m

CCCCCCCC[n+]1ccn(C)c1.[Cl-] [1-methyl-3-octylimidazolium chloride]
surface tension liquid-gas (298 K): 31.9 ± 1 mN/m
surface tension liquid-gas (303 K): 31.7 ± 1 mN/m
surface tension liquid-gas (308 K): 31.5 ± 1 mN/m
surface tension liquid-gas (313 K): 31.2 ± 1 mN/m
surface tension liquid-gas (318 K): 30.9 ± 1 mN/m
surface tension liquid-gas (323 K): 30.6 ± 1 mN/m
surface tension liquid-gas (328 K): 30.3 ± 1 mN/m
surface tension liquid-gas (333 K): 30 ± 1 mN/m
surface tension liquid-gas (338 K): 29.7 ± 1 mN/m
surface tension liquid-gas (343 K): 29.5 ± 1 mN/m
surface tension liquid-gas (348 K): 29.2 ± 1 mN/m
surface tension liquid-gas (353 K): 28.9 ± 0.9 mN/m
surface tension liquid-gas (358 K): 28.7 ± 0.9 mN/m
surface tension liquid-gas (363 K): 28.4 ± 0.9 mN/m
surface tension liquid-gas (368 K): 28.2 ± 0.9 mN/m
surface tension liquid-gas (373 K): 27.9 ± 0.9 mN/m
surface tension liquid-gas (378 K): 27.6 ± 0.9 mN/m
surface tension liquid-gas (383 K): 27.4 ± 0.9 mN/m
surface tension liquid-gas (388 K): 27 ± 0.9 mN/m
surface tension liquid-gas (393 K): 26.7 ± 0.9 mN/m

CCCCCCCC[n+]1ccn(C)c1.F[B-](F)(F)F [1-methyl-3-octylimidazolium tetrafluoroborate]
surface tension liquid-gas (298 K): 30.7 ± 1 mN/m
surface tension liquid-gas (303 K): 30.4 ± 1 mN/m
surface tension liquid-gas (308 K): 30.1 ± 1 mN/m
surface tension liquid-gas (313 K): 29.9 ± 1 mN/m
surface tension liquid-gas (318 K): 29.6 ± 1 mN/m
surface tension liquid-gas (323 K): 29.4 ± 1 mN/m
surface tension liquid-gas (328 K): 29.2 ± 1 mN/m
surface tension liquid-gas (333 K): 28.9 ± 0.9 mN/m
surface tension liquid-gas (338 K): 28.7 ± 0.9 mN/m
surface tension liquid-gas (343 K): 28.4 ± 0.9 mN/m
surface tension liquid-gas (348 K): 28.2 ± 0.9 mN/m
surface tension liquid-gas (353 K): 27.9 ± 0.9 mN/m
surface tension liquid-gas (358 K): 27.7 ± 0.9 mN/m
surface tension liquid-gas (363 K): 27.4 ± 0.9 mN/m
surface tension liquid-gas (368 K): 27.2 ± 0.9 mN/m
surface tension liquid-gas (373 K): 27 ± 0.9 mN/m
surface tension liquid-gas (378 K): 26.7 ± 0.9 mN/m
surface tension liquid-gas (383 K): 26.5 ± 0.9 mN/m
surface tension liquid-gas (388 K): 26.3 ± 0.9 mN/m
surface tension liquid-gas (393 K): 26 ± 0.9 mN/m
